Data taken from patent US8524682B2, “Compositions and methods for inhibiting EZH2” (The Regents of the University of Michigan, priority 2007, dated 2013).

Legend:
Assay type in all cases: cell-based
[1] = molecular target: T1, EZH2 (Homo sapiens, UniProt Q15910); test: E-cadherin promoter-luciferase reporter high throughput screen in EZH2 adenovirus infected cells; conditions: final compound concentration about 5 μM, 24 hours
T1 construct: expressed in transfected cells
Description: A high throughput screening protocol was used to identify small molecule inhibitors of EZH2. Primary breast cancer cells were transfected with the E-cadherin promoter luciferase reporter gene and infected with the EZH2 adenovirus to suppress luciferase expression 48 hours prior to compound addition. Eighteen hours prior to compound addition, cells were trypsinized and distributed into 384-well plates in 60 μl of medium using the Multidrop equipment. At time zero, compounds were transferred from 1.5 mM DMSO stocks to the cell plates in a final compound concentration of about 5 μM. […] After 24 hours, the expressed luciferase activity was measured by adding 50 μl of the medium and 10 μl of Steady-Glo luciferase reagent (Promega). Sample plates were read in the Pherastar plate reader (BMG Labtech). Each plate in the screen contains 320 compounds to be tested plus 64 control wells placed in the outer two columns on each side of the plate (>50,000 compounds are screened). […] More than 4000 small molecules were screened, which included synthetic chemicals as well as natural products that are available in the Center for Chemical Genomics (CCG) library at the University of Michigan.

[2] = molecular target: T1, EZH2; test: Quantitative SYBR green RT-PCR of E cadherin transcripts in EZH2 overexpressing cells
Description: A, Chemical structure of the flavonoid isoliquiritigenin. B, Quantitative SYBR green RT-PCR of EZH2 and E cadherin transcripts in cell lines over expressing EZH2 and control adenoviruses. RT-PCR on each sample was performed in duplicate, and a ratio was calculated relative to the housekeeping genes GAPDH. Transcripts were also measured in cells that were treated with isoliquiritigenin or other small molecules.
(§1) A, Dose response of isoliquiritigenin on inhibiting EZH2 mediated repression. B, A reconstituted basement membrane invasion chamber assay was used to assess the invasion of breast epithelial cell line infected with EZH2 and control adenoviruses as well as SET domain mutant EZH2 adenovirus. EZH2 treated cells were also treated with SAHA, the HDAC inhibitor and isoliquiritigenin, the small molecule inhibitor of EZH2 and the control small molecule phloretin.

[3] = tested on: HME cells overexpressing EZH2; test: Basement membrane invasion chamber assay, breast cell line HME overexpressing EZH2
Description: as §1

T1 sequence (Q15910 whole entry): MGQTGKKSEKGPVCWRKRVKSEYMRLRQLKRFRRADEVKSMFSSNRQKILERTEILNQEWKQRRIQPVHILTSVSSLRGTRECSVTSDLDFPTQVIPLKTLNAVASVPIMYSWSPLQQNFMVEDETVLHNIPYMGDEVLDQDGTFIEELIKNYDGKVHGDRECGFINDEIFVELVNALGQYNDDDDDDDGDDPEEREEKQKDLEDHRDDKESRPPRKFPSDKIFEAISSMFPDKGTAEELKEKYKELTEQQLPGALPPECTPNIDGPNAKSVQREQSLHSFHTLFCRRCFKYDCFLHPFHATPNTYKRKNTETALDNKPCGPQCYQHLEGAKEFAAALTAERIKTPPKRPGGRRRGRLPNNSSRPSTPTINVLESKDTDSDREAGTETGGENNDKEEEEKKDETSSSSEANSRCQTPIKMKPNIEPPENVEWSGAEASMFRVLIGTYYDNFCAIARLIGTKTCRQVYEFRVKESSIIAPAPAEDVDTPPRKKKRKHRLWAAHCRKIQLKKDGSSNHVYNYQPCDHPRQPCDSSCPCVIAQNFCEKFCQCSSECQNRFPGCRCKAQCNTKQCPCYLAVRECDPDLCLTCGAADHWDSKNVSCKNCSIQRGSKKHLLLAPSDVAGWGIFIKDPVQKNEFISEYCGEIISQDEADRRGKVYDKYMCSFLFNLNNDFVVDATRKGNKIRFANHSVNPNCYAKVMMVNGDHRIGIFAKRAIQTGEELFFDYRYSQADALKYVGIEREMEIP

## O=C(/C=C/c1ccc(O)cc1)c1ccc(O)cc1O [isoliquiritigenin]
[1]
  EZH2 inhibitory activity: potent small molecule inhibitor of EZH2 activity
[2]; RT-PCR, cells over expressing EZH2
  inhibition of EZH2 mediated E cadherin repression: significantly inhibit
[2]; dose response
  concentration that optimally inhibits the EZH2 mediated E cadherin repression: 16 µM
[3]
  inhibition of invasion mediated by EZH2 overexpression: inhibited this invasion
